Reference: article PMC7037546, “High Cell Selectivity and Bactericidal Mechanism of Symmetric Peptides Centered on D-Pro–Gly Pairs” (International Journal of Molecular Sciences, 2020)
Converted amounts (≈) assume the structure as drawn. Non-standard residues stand in square brackets, D forms with d. Residues, ends and D or L forms follow the SMILES beside them.

Tests used:
[1] = tested on: Gram-positive bacteria; assay: Geometric mean of MICs and therapeutic index, Gram (+); assay type: cell-based; conditions: geometric mean over the Gram-positive strains of Table 2; 256 μM used when no activity at 128 μM
Description: (§1) The antimicrobial activity of the designed peptides was examined using the micro-dilution method described previously. The bacteria were cultured for 16 h in MHB at 37 °C, and the microbial suspension was diluted to a final concentration of 10^5 colony-forming units (CFU)/mL. Then, 50 µL of MHB containing different concentrations peptides (0.25–256 µM) was mixed with 50 µL of bacterial solution, and the mixture was added to a 96-well plate. […] The assays were performed three times.

[2] = tested on: E. coli ATCC25922; conditions: ATCC25922, 16 h
Description: The combined antibacterial effect of peptides with other antibiotics was evaluated by checkerboard assay as described previously. […] Subsequently, each peptide at the same concentration was added to the longitudinal column of wells, and each antibiotic at the same concentration was added to the horizontal row of wells. A suspension at 10^5 CFU/mL was put into each well for 16 h at 37 °C. Each assay was performed three times.

[3] = tested on: Escherichia coli ATCC25922; assay: microbe, parasite or virus in culture; conditions: ATCC25922, 16 h
Description: as §1

[4] = tested on: RAW 264.7 cells; assay: Cytotoxicity, CCK-8 assay; assay type: cell-based, murine; conditions: 64 μM peptide, 16 h, CCK-8, OD 450 nm
Description: (§2) The cytotoxicity was detected according to a CCK-8 assay as described previously. Briefly, RAW 264.7 and HEK293T cells were placed into 96-well plates at a density of 1.0–2.0 × 10^5, and then cultured for 16 h under conditions of 5% CO2. Then, two-fold diluted peptides in DMEM were added to the plates. After 16 h of culturing, CCK-8 (10%, v/v) was put into each well containing cell culture, and mixtures were cultured for 2 h. The cytotoxicity assay was examined by measuring the OD of the mixtures at 450 nm (Microplate reader, TECAN GENios F129004, Tecan, Salzburg, Austria). The assays were performed three times.

[5] = tested on: E. coli ATCC25922; assay type: cell-based, Escherichia coli; conditions: for MIC after pH treatment, pH 4 / MIC after pH treatment, pH 6 / MIC after pH treatment, pH 8 / MIC after pH treatment, pH 10: ATCC25922, 1 h; for MIC after temperature treatment, 0 °C / MIC after temperature treatment, 37 °C / MIC after temperature treatment, 100 °C / MIC in the presence of FeCl3 / MIC in the presence of KCl / MIC in the presence of MgCl2 / MIC in the presence of NH4Cl / MIC in the presence of NaCl / MIC in the presence of ZnCl2 / MIC, Control / MIC, Control (pH 7): ATCC25922, 16 h
Description: as §1
The salt, temperature, and pH sensitivities of designed peptides were determined by MIC assay as described previously. For the salt sensitivity assay, peptides were diluted in deionized water containing different salts, and mixed with E. coli ATCC25922 (10^5 CFU/mL). The final physiological concentrations of different salts were as follows: 150 mM NaCl, 4.5 mM KCl, 6 μM NH4Cl, 1 mM MgCl2, 8 μM ZnCl2, and 4 μM FeCl3. For temperature sensitivity, peptides were cooled on ice for 10 min, and incubated at 37 °C and 100 °C for 30 min. For pH sensitivity, peptides were treated with different pH for 1 h. Briefly, peptides were diluted in deionized water, and the pH of the solution was adjusted to 4.0, 6.0, 8.0, and 10.0 with HCl or NaOH. The subsequent steps were the same as for the MIC measurements. These tests were performed three times.

[6] = tested on: methicillin-resistant S. aureus ATCC43300; conditions: ATCC43300, 16 h
Description: as §1

[7] = tested on: Klebsiella pneumonia CMCC46117; conditions: CMCC46117, 16 h
Description: as §1

[8] = tested on: Staphylococcus aureus ATCC25923; conditions: ATCC25923, 16 h
Description: as §1

[9] = tested on: E. coli K88; conditions: micro-dilution in MHB, 10^5 CFU/mL, 16 h, OD 492 nm, performed three times
Description: as §1

[10] = tested on: Gram-negative bacteria; conditions: 16 h
Description: as §1

[11] = tested on: Salmonella Pullorum NCTC5776; conditions: NCTC5776, 16 h
Description: as §1

[12] = tested on: Enterococcus faecalis ATCC29212; conditions: ATCC29212, 16 h
Description: as §1

[13] = tested on: Pseudomonas aeruginosa ATCC27853; conditions: ATCC27853, 16 h
Description: as §1

[14] = tested on: S. aureus ATCC29213; conditions: ATCC29213, 16 h
Description: as §1

[15] = tested on: HEK293T cells; assay: Cytotoxicity, CCK-8 assay; assay type: cell-based, human; conditions: 64 μM peptide, 16 h, CCK-8, OD 450 nm
Description: as §2

Row | SMILES | GM (geometric mean of MICs), Gram (+) [1] | MIC [3] | cell survival rate [4] | MIC after pH treatment, pH 4 [5] | MIC after pH treatment, pH 6 [5] | MIC after pH treatment, pH 8 [5] | MIC after pH treatment, pH 10 [5] | MIC after temperature treatment, 0 °C [5] | MIC after temperature treatment, 37 °C [5] | MIC after temperature treatment, 100 °C [5] | MIC in the presence of FeCl3 [5] | MIC in the presence of KCl [5] | MIC in the presence of MgCl2 [5] | MIC in the presence of NH4Cl [5] | MIC in the presence of NaCl [5] | MIC in the presence of ZnCl2 [5] | MIC, Control [5] | MIC, Control (pH 7) [5] | MIC [6] | MIC [7] | further results
1 | CC(C)C[C@H](NC(=O)[C@H](CC(C)C)NC(=O)[C@H](CCCNC(=N)N)NC(=O)[C@H](CC(C)C)NC(=O)[C@H](CC(C)C)NC(=O)[C@H](CCCNC(=N)N)NC(=O)[C@H](CCCNC(=N)N)NC(=O)CNC(=O)[C@H]1CCCN1C(=O)[C@H](CCCNC(=N)N)NC(=O)[C@H](CCCNC(=N)N)NC(=O)[C@H](CC(C)C)NC(=O)[C@H](CC(C)C)NC(=O)[C@H](CCCNC(=N)N)NC(=O)[C@H](CC(C)C)NC(=O)[C@@H](N)CC(C)C)C(N)=O [LRpG] (H-LLRLLRR[dP]GRRLLRLL-NH2) | 19.0 µM | 2 µM (≈ 4.03 µg/mL) | 92% | 2 µM | 2 µM | 2 µM | 4 µM | 2 µM (≈ 4.03 µg/mL) | 2 µM (≈ 4.03 µg/mL) | 2 µM (≈ 4.03 µg/mL) | 2 µM | 2 µM | 2 µM | 2 µM | 8 µM | 2 µM | 2 µM (≈ 4.03 µg/mL) | 2 µM | 16 µM (≈ 32.2 µg/mL) | 4 µM (≈ 8.05 µg/mL) | FICI in combination with Cefotaxime [2]: 1; FICI in combination with Chloramphenicol [2]: 0.75; FICI in combination with Ciprofloxacin [2]: 0.625; FICI in combination with Streptomycin [2]: 0.5; FICI in combination with other conventional antibiotics (additive effect) [2]: 0.625-1; MIC [8]: 16 µM (≈ 32.2 µg/mL); MIC [9]: 2 µM (≈ 4.03 µg/mL); GM (geometric mean of MICs), Gram (−) [10]: 3.5 µM; MIC [11]: 4 µM (≈ 8.05 µg/mL); MIC [12]: 32 µM (≈ 64.4 µg/mL); MIC [13]: 8 µM (≈ 16.1 µg/mL); MIC [14]: 16 µM (≈ 32.2 µg/mL); cell survival rate [15]: 93%
2 | CC[C@H](C)[C@H](N)C(=O)N[C@H](C(=O)N[C@@H](CCCNC(=N)N)C(=O)N[C@H](C(=O)N[C@H](C(=O)N[C@@H](CCCNC(=N)N)C(=O)N[C@@H](CCCNC(=N)N)C(=O)N1CCC[C@@H]1C(=O)NCC(=O)N[C@@H](CCCNC(=N)N)C(=O)N[C@@H](CCCNC(=N)N)C(=O)N[C@H](C(=O)N[C@H](C(=O)N[C@@H](CCCNC(=N)N)C(=O)N[C@H](C(=O)N[C@H](C(N)=O)[C@@H](C)CC)[C@@H](C)CC)[C@@H](C)CC)[C@@H](C)CC)[C@@H](C)CC)[C@@H](C)CC)[C@@H](C)CC [IRpG] (H-IIRIIRR[dP]GRRIIRII-NH2) | 256 µM | 4 µM (≈ 8.05 µg/mL) | 98% | 16 µM | 4 µM | 8 µM | 16 µM | 4 µM (≈ 8.05 µg/mL) | 4 µM (≈ 8.05 µg/mL) | 4 µM (≈ 8.05 µg/mL) | 4 µM | 4 µM | 8 µM | 4 µM | 32 µM | 4 µM | 4 µM (≈ 8.05 µg/mL) | 4 µM | >128 µM | 32 µM (≈ 64.4 µg/mL) | MIC [8]: >128 µM; MIC [9]: 16 µM (≈ 32.2 µg/mL); GM (geometric mean of MICs), Gram (−) [10]: 16 µM; MIC [11]: 16 µM (≈ 32.2 µg/mL); MIC [12]: >128 µM; MIC [13]: 32 µM (≈ 64.4 µg/mL); MIC [14]: >128 µM; cell survival rate [15]: 98%
